From patent publication US20050095239A1, “Methods and compositions for treating Alzheimer's disease” (priority 2002, published 2005)

Experiments:
[1] = system: ABCA1 protein expression in mouse primary neurons; test: ABCA1 immunoblot of mouse primary neurons treated with retinoic acid and 22-hydroxycholesterol; assay type: cell-based
Description: (§1) Cell culture. Mouse Neuro2A (neuroblastoma) cells and human IMR-32 (neuroblastoma) cells (American Type Culture Collection, Manassas, Va.) were cultured in Optimem (Gibco, Invitrogen Life Technologies, Carlsbad, Calif.) supplemented with 10% fetal bovine serum. Mouse BV-2 (microglial) and rat C6 (glioma) cells were cultured in Dulbecco's modified Eagle's medium supplemented with 5% fetal bovine serum. Mouse primary neuronal cultures were generated as described (27). Briefly, cortical neurons were isolated from embryonic day 16 Swiss-Webster mice. Individual cortices was dissociated in calcium-free saline and plated on poly-D-lysine (Sigma) coated tissue culture dishes at the density of 1.5×10^6 cell/ml. The neurons were grown in Neurobasal Media (Gibco BRL) plus 10% fetal bovine serum. One hour after plating, medium with serum was replaced with medium containing B-27 supplement (Gibco BRL). Western blot. Cells were lysed in 250 mM sucrose, 10 mM HEPES (pH 7.4), supplemented with complete protease inhibitors (Sigma Chemical Co). Protein levels were quantified by the BCA assay (Pierce, Rockford, Ill.), and samples of 50 μg were held in SDS loading buffer with 2.5% β-mercaptoethanol for 30 min at room temperature, but were not boiled prior to loading. Proteins were separated by SDS-6% polyacrylamide gel electrophoresis and transferred to nitrocellulose. […]

[2] = system: ABCA1 protein expression in human neuroblastoma IMR-32 cells; test: ABCA1 immunoblot of IMR-32 cells; assay type: cell-based; details: with retinoic acid
Description: as §1

[3] = system: ABCA1 protein expression in C6 cells; test: ABCA1 immunoblot of C6 glioma cells; assay type: cell-based, rat
Description: (§2) Cell culture. Mouse Neuro2A (neuroblastoma) cells and human IMR-32 (neuroblastoma) cells (American Type Culture Collection, Manassas, Va.) were cultured in Optimem (Gibco, Invitrogen Life Technologies, Carlsbad, Calif.) supplemented with 10% fetal bovine serum. Mouse BV-2 (microglial) and rat C6 (glioma) cells were cultured in Dulbecco's modified Eagle's medium supplemented with 5% fetal bovine serum. Mouse primary neuronal cultures were generated as described (27). Briefly, cortical neurons were isolated from embryonic day 16 Swiss-Webster mice. Individual cortices was dissociated in calcium-free saline and plated on poly-D-lysine (Sigma) coated tissue culture dishes at the density of 1.5×10^6 cell/ml. The neurons were grown in Neurobasal Media (Gibco BRL) plus 10% fetal bovine serum. One hour after plating, medium with serum was replaced with medium containing B-27 supplement (Gibco BRL). Western blot. Cells were lysed in 250 mM sucrose, 10 mM HEPES (pH 7.4), supplemented with complete protease inhibitors (Sigma Chemical Co). Protein levels were quantified by the BCA assay (Pierce, Rockford, Ill.), and samples of 50 μg were held in SDS loading buffer with 2.5% β-mercaptoethanol for 30 min at room temperature, but were not boiled prior to loading. Proteins were separated by SDS-6% polyacrylamide gel electrophoresis and transferred to nitrocellulose. Blots were probed with the anti-ABC1 antibodies (1:1000), and developed with anti-rabbit linked HRP secondary antibody by chemiluminescence.

[4] = system: ABCA1 protein expression in Neuro2A cells; test: ABCA1 immunoblot of Neuro2A cells treated with retinoic acid and oxysterols; assay type: cell-based, mouse; details: for ABCA1 induction, densitometric analysis / increase of ABCA1 protein (immunoblot) compared with 22-hydroxycholesterol: 5 μM oxysterol with 5 μM retinoic acid; for increase of ABCA1 protein (immunoblot) compared with 22-hydroxycholesterol: one or two days
Description: as §2

[5] = system: secreted Aβ42 from Neuro2A cells; test: Aβ42 ELISA of conditioned medium of Neuro2A cells; assay type: cell-based, mouse; details: for increase of secreted Aβ42 over vehicle-treated cells: with retinoic acid, one day, 22-hydroxycholesterol 10 uM
Description: (§3) Cell culture. Mouse Neuro2A (neuroblastoma) cells and human IMR-32 (neuroblastoma) cells (American Type Culture Collection, Manassas, Va.) were cultured in Optimem (Gibco, Invitrogen Life Technologies, Carlsbad, Calif.) supplemented with 10% fetal bovine serum. Mouse BV-2 (microglial) and rat C6 (glioma) cells were cultured in Dulbecco's modified Eagle's medium supplemented with 5% fetal bovine serum. Mouse primary neuronal cultures were generated as described (27). Briefly, cortical neurons were isolated from embryonic day 16 Swiss-Webster mice. Individual cortices was dissociated in calcium-free saline and plated on poly-D-lysine (Sigma) coated tissue culture dishes at the density of 1.5×10^6 cell/ml. The neurons were grown in Neurobasal Media (Gibco BRL) plus 10% fetal bovine serum. One hour after plating, medium with serum was replaced with medium containing B-27 supplement (Gibco BRL).
(§4) RNA inhibition. Double stranded RNA (RNAi) was generated homologous to a region of the 5′ end of the coding portion of the mouse ABCA1 gene, 5′-AAGTGGCCTGGCCTCTCTTTA-3′ (SEQ ID NO:2) (Dharmacon Research Inc, Lafayette, Colo.). As a negative control, we used a sequence directed against the human hsp70 gene. Neuro2A cells were transfected with the RNAi with Effectene transfection reagent (Qiagen, Valencia, Calif.) according to manufacturer protocol. After an overnight exposure, RNAi complex was removed, cells were washed one time in growth medium, and the media was replaced with Neurobasal medium with 2% B-27 with or without LXR/RXR agonists for one day. Conditioned media was collected and analyzed for Aβ.
(§5) Aβanalyses. Cells were cultured in Neurobasal medium with 2% B-27 for one day in the presence or absence of LXR/RXR agonists. Aβ40 and Aβ42 levels in the conditioned medium were determined by ELISA, with BNT77 as a capture antibody and BA23-HRP for Aβ40 or BC05-HRP for Aβ42 as detection antibodies (28). Aβ antibodies for ELISA were the generous gift of Takeda Chemical Industries.

[6] = system: secreted Aβ40 from Neuro2A cells; test: Aβ40 ELISA of conditioned medium of Neuro2A cells; assay type: cell-based, mouse; details: for increase of secreted Aβ40 over vehicle-treated cells: with retinoic acid, one day, 22-hydroxycholesterol 10 uM
Description: as §3, §4, §5

[7] = system: ABCA1 protein expression in BV-2 cells; test: ABCA1 immunoblot of BV-2 microglial cells; assay type: cell-based, mouse
Description: as §2

LXRα or LXRβ isoforms = details: references 37, 38; cited from earlier work
[8] = 5 μM retinoic acid and 5 μM 22-hydroxycholesterol together
[9] = cells treated only with buffer or with the RNAi named
[10] = retinoic acid and 22-hydroxycholesterol vs vehicle (ethanol), absence of RNAi
[11] = 1 μM TO-901317 in the presence of 5 μM retinoic acid

For `CC(C)CC[C@@H](O)[C@@H](C)[C@H]1CC[C@H]2[C@@H]3CC=C4C[C@@H](O)CC[C@]4(C)[C@H]3CC[C@]12C` [22-hydroxycholesterol, 22(R)-hydroxycholesterol], the “ABCA1 expression with increasing concentration” value ([1]; 22-hydroxycholesterol together with retinoic acid, from 100 nM to 10 uM) was “further increased ABCA1 expression”, the “ABCA1 protein compared to untreated cells” value ([1]; one-day treatment, 100 nM 22-hydroxycholesterol together with 100 nM retinoic acid) was “up-regulation of ABCA1 protein” and the ABCA1 levels [2] was “detectable ABCA1 levels only after induction”. For the same compound, the ABCA1 expression [3, 8] was “increased”, the “ABCA1 induction, densitometric analysis” value [4] was “equivalent extent” and the “expression of ABCA1” value ([4]; 10 μM retinoic acid and 22-hydroxycholesterol together, untreated cells low or undetectable) was “clearly apparent”. The “up-regulation of ABCA1 in cells treated only with the one compound” value ([4]; compound alone, some experiments) was “weak up-regulation”, the “secreted Aβ42 after 22-hydroxycholesterol/retinoic acid treatment, in words” value [5, 9] was “significantly increased” and the “increase of Aβ42, control cells of the RNAi experiment” value [5, 10] was 62%. For the same compound, the “increase of secreted Aβ42 over vehicle-treated cells” value [5] was 65%, the “secreted Aβ40 after 22-hydroxycholesterol/retinoic acid treatment, in words” value [6, 9] was “significantly increased” and the “increase of Aβ40, control cells of the RNAi experiment” value [6, 10] was 29%. For the same compound, the “increase of secreted Aβ40 over vehicle-treated cells” value [6] was 29% and the ABCA1 expression [7, 8] was “increased”.

For `CC(C)[C@@H](O)CC[C@@H](C)[C@H]1CC[C@H]2[C@@H]3CC=C4C[C@@H](O)CC[C@]4(C)[C@H]3CC[C@]12C` [24S-hydroxycholesterol], the “ABCA1 expression through interactions with LXRα or LXRβ” value (LXRα or LXRβ isoforms) is listed as “induces ABCA1 expression”.

In the case of `C[C@H](CCCC(C)(C)O)[C@H]1CC[C@H]2[C@@H]3CC=C4C[C@@H](O)CC[C@]4(C)[C@H]3CC[C@]12C` [25-hydroxycholesterol], the “ABCA1 induction, densitometric analysis” value [4] is reported as “equivalent extent” and the “increase of ABCA1 protein (immunoblot) compared with 22-hydroxycholesterol” value [4] is reported as “nearly as well as 22-hydroxycholesterol”.

With `O=S(=O)(c1ccccc1)N(CC(F)(F)F)c1ccc(C(O)(C(F)(F)F)C(F)(F)F)cc1` [TO-901317] the ABCA1 expression ([3]; 1 μM TO-901317 alone) was “increased”, the ABCA1 expression [3, 11] was “further increased” and the “increase of secreted Aβ42 over vehicle-treated cells” value [5] was 126%. For the same compound, the “increase of secreted Aβ40 over vehicle-treated cells” value [6] was 25%, the ABCA1 expression ([7]; 1 μM TO-901317 alone) was “increased” and the ABCA1 expression [7, 11] was “further increased”.

In the case of `CC(C)CCC[C@@H](C)[C@H]1CC[C@H]2[C@@H]3C(=O)C=C4C[C@@H](O)CC[C@]4(C)[C@H]3CC[C@]12C` [7-ketocholesterol], the “ABCA1 induction, densitometric analysis” value [4] is reported as “only half that level” and the “increase of ABCA1 protein (immunoblot) compared with 22-hydroxycholesterol” value [4] is reported as “not as efficacious”.
